Here are results for 21 compounds from ChEMBL document CHEMBL3045042, “The discovery of SYP-10913 and SYP-11277: novel strobilurin acaricides” (Pest Manag Sci, 2011).

≈ marks a conversion by molar mass, not a printed value.

Data set [1] concerns Tetranychus cinnabarinus. The data set is described as follows: Acaricidal activity against Tetranychus cinnabarinus (carmine spider mite) in kidney bean leaf assessed as mortality at 2.5 mg/L measured after 72 hr of spray. It is filed as functional.
The subject of data set [2] is Tetranychus cinnabarinus. As to the kind of experiment: Acaricidal activity against Tetranychus cinnabarinus (carmine spider mite) in kidney bean leaf assessed as mortality at 5 mg/L measured after 72 hr of spray. It is filed as functional.
Data set [3] relates to Tetranychus cinnabarinus. As to the kind of experiment: Acaricidal activity against Tetranychus cinnabarinus (carmine spider mite) in kidney bean leaf assessed as mortality at 1.25 mg/L measured after 72 hr of spray. Format: functional.
The test system of data set [4] is Tetranychus cinnabarinus. As to the kind of experiment: Acaricidal activity against Tetranychus cinnabarinus (carmine spider mite) in kidney bean leaf assessed as mortality at 10 mg/L measured after 72 hr of spray. It is filed as functional.
Data set [5] relates to Tetranychus cinnabarinus. The data set is described as follows: Acaricidal activity against Tetranychus cinnabarinus (carmine spider mite) in kidney bean leaf assessed as mortality at 40 mg/L measured after 72 hr of spray. It is filed as functional.
Data set [6] is filed under the species Oryctolagus cuniculus. As to the kind of experiment: Toxicity in Oryctolagus cuniculus (rabbit) assessed as skin irritation. It is filed as organism-based. To be noted: in vivo.
Data set [7] has as its system Tetranychus cinnabarinus. As to the kind of experiment: Acaricidal activity against nymphs of Tetranychus cinnabarinus (carmine spider mite) in kidney bean leaf assessed as mortality measured after 120 hr. It is filed as functional.
A short description of data set [8]: Acute percutaneous toxicity in Mus musculus (mouse). Format: organism-based. To be noted: in vivo, topical or ocular.
The next data set relates to Salmonella typhimurium. The data set is described as follows: Genotoxicity in Salmonella enterica subsp. enterica serovar Typhimurium by Ames test. It is filed as toxicity, organism-based.
The species entered for data set [9] is Oryctolagus cuniculus. The data set is described as follows: Toxicity in Oryctolagus cuniculus (rabbit) assessed as eye irritation. Format: organism-based. To be noted: in vivo.
Data set [10] has as its system Tetranychus cinnabarinus. As to the kind of experiment: Acaricidal activity against eggs of Tetranychus cinnabarinus (carmine spider mite) in kidney bean leaf assessed as unhatched eggs measured after 120 hr. Format: functional.
The nature of data set [11]: Acute oral toxicity in Mus musculus (mouse). To be noted: in vivo. It is filed as organism-based.

`CO/C=C(/C(=O)OC)c1ccccc1COc1cc(C(F)(F)F)nc(Nc2ccc(Cl)c(C)c2Cl)n1`: the mortality (commonly the share of the test organisms that died) at 2.5 µg/mL with Tetranychus cinnabarinus [1] was 92%. Besides, the mortality at 5 µg/mL with Tetranychus cinnabarinus [2] came out at 100%. Moreover, the mortality at 1.25 µg/mL with Tetranychus cinnabarinus [3] stood at 79%. In the data set with Tetranychus cinnabarinus [4], the mortality at 10 µg/mL was 100%. In the data set on Tetranychus cinnabarinus [5], the mortality at 40 µg/mL worked out at 100%.
As for `CO/C=C(/C(=O)OC)c1ccccc1COc1cc(C(F)(F)F)nc(Nc2cccc(Cl)c2Cl)n1`, the figures for the Activity result in the data set filed under Oryctolagus cuniculus [6], in the data set on Salmonella typhimurium and in the data set listed under Oryctolagus cuniculus [9] were “Non-toxic”, “Non-toxic” and “Toxic”, respectively. For the same compound, in the data set with Tetranychus cinnabarinus [1], the mortality at 2.5 µg/mL is 95%. Moreover, the LC50 – broadly, the concentration lethal to half of the exposed cells or organisms – in the data set with Tetranychus cinnabarinus [7] was found to be 0.34 µg/mL (≈ 0.644 µM); with Tetranychus cinnabarinus [10], 4.75 µg/mL (≈ 8.99 µM). In addition, in the data set on Tetranychus cinnabarinus [2], the mortality at 5 µg/mL was 99%. Also, the values for the LD50 in [8] and in data set [11] were ≥ 2150 mg/kg and ≥ 4640 mg/kg, respectively. Further, in the data set on Tetranychus cinnabarinus [3], the mortality at 1.25 µg/mL was determined as 75%. Besides, in the data set with Tetranychus cinnabarinus [4], the mortality at 10 µg/mL is 100%. Also, the mortality at 40 µg/mL in the data set on Tetranychus cinnabarinus [5] turned out to be 100%.
On to `CO/C=C(/C(=O)OC)c1ccccc1COc1cc(C(F)(F)F)nc(Nc2ccccc2C)n1`, for which, in the data set with Tetranychus cinnabarinus [4], the mortality at 10 µg/mL was found to be 0%. The mortality at 40 µg/mL with Tetranychus cinnabarinus [5] stood at 100%.
For `CO/C=C(/C(=O)OC)c1ccccc1COc1cc(C(F)(F)F)nc(Nc2c(Cl)cccc2Cl)n1` the same measures were 0% and 0%.
In the case of `CO/C=C(/C(=O)OC)c1ccccc1COc1cc(C(F)(F)F)nc(Nc2ccc(Cl)cc2C)n1`, the mortality at 10 µg/mL in the data set on Tetranychus cinnabarinus [4] came out at 0%. Also, the mortality at 40 µg/mL in the data set with Tetranychus cinnabarinus [5] is 0%.
Consider `CO/C=C(/C(=O)OC)c1ccccc1COc1cc(C(F)(F)F)nc(Nc2ccc(C)cc2)n1`, for which, in the data set with Tetranychus cinnabarinus [4], the mortality at 10 µg/mL turned out to be 0%. Besides, the mortality at 40 µg/mL in the data set on Tetranychus cinnabarinus [5] was 0%.
For the compound `CO/C=C(/C(=O)OC)c1ccccc1COc1cc(C(F)(F)F)nc(Nc2ccc(OC)cc2)n1`, in the data set with Tetranychus cinnabarinus [4], the mortality at 10 µg/mL amounted to 0%. In addition, in the data set on Tetranychus cinnabarinus [5], the mortality at 40 µg/mL came to 0%.
As to `CO/C=C(/C(=O)OC)c1ccccc1COc1cc(C(F)(F)F)nc(Nc2cc(C)ccc2C)n1`, the mortality at 10 µg/mL with Tetranychus cinnabarinus [4] worked out at 0%. In addition, in the data set with Tetranychus cinnabarinus [5], the mortality at 40 µg/mL came out at 0%.
Turning to `CO/C=C(/C(=O)OC)c1ccccc1COc1cc(C(F)(F)F)nc(Nc2ccc(Cl)c(Cl)c2)n1`, the mortality at 10 µg/mL in the data set on Tetranychus cinnabarinus [4] was found to be 0%. In the data set on Tetranychus cinnabarinus [5], the mortality at 40 µg/mL came to 73%.
On the same counts, the results for `CO/C=C(/C(=O)OC)c1ccccc1COc1cc(C(F)(F)F)nc(Nc2cc(Cl)cc(Cl)c2)n1` are 0% and 0%.
On the same counts, the results for `CO/C=C(/C(=O)OC)c1ccccc1COc1cc(C(F)(F)F)nc(Nc2ccc(C)cc2C)n1` are 76% and 100%.
Turning to `CO/C=C(/C(=O)OC)c1ccccc1COc1cc(C(F)(F)F)nc(Nc2cccc(Cl)c2C)n1`, the mortality at 10 µg/mL with Tetranychus cinnabarinus [4] came out at 0%. In addition, the mortality at 40 µg/mL with Tetranychus cinnabarinus [5] was 0%.
Turning to `CO/C=C(/C(=O)OC)c1ccccc1COc1cc(C(F)(F)F)nc(Nc2ccc(Cl)c(Cl)c2Cl)n1`, the mortality at 2.5 µg/mL in the data set on Tetranychus cinnabarinus [1] is 98%. Further, the mortality at 5 µg/mL in the data set with Tetranychus cinnabarinus [2] stood at 100%. Besides, in the data set on Tetranychus cinnabarinus [3], the mortality at 1.25 µg/mL turned out to be 75%. Moreover, the mortality at 10 µg/mL with Tetranychus cinnabarinus [4] is 100%. Also, the mortality at 40 µg/mL in the data set on Tetranychus cinnabarinus [5] came to 100%.
For the compound `CO/C=C(/C(=O)OC)c1ccccc1COc1cc(C(F)(F)F)nc(Nc2ccc(C(F)(F)F)cc2)n1`, the mortality at 10 µg/mL in the data set with Tetranychus cinnabarinus [4] worked out at 0%. In addition, in the data set with Tetranychus cinnabarinus [5], the mortality at 40 µg/mL was 0%.
Consider `CO/C=C(/C(=O)OC)c1ccccc1COc1cc(C(F)(F)F)nc(Nc2cccc(C)c2)n1`, for which the mortality at 10 µg/mL in the data set on Tetranychus cinnabarinus [4] worked out at 20%. Moreover, the mortality at 40 µg/mL in the data set on Tetranychus cinnabarinus [5] was 90%.
Take `CO/C=C(/C(=O)OC)c1ccccc1COc1cc(C(F)(F)F)nc(Nc2ccc(C)c(C)c2)n1`: in the data set on Tetranychus cinnabarinus [4], the mortality at 10 µg/mL amounted to 20%. Moreover, the mortality at 40 µg/mL in the data set with Tetranychus cinnabarinus [5] came to 97%.
`CO/C=C(/C(=O)OC)c1ccccc1COc1cc(C(F)(F)F)nc(Nc2ccc(Cl)cc2Cl)n1` [SYP-11277]: in the data set on Tetranychus cinnabarinus [1], the mortality at 2.5 µg/mL turned out to be 98%. Moreover, the results for the LC50 with Tetranychus cinnabarinus [7] and in the data set on Tetranychus cinnabarinus [10] were 0.37 µg/mL (≈ 0.7 µM) and 3.63 µg/mL (≈ 6.87 µM), respectively. In the data set with Tetranychus cinnabarinus [2], the mortality at 5 µg/mL was found to be 100%. In the data set on Tetranychus cinnabarinus [3], the mortality at 1.25 µg/mL amounted to 90%. For the same compound, in the data set on Tetranychus cinnabarinus [4], the mortality at 10 µg/mL was 100%. In addition, the mortality at 40 µg/mL in the data set on Tetranychus cinnabarinus [5] is 100%.
Consider `CO/C=C(/C(=O)OC)c1ccccc1COc1cc(C(F)(F)F)nc(Nc2cc(Cl)c(Cl)cc2Cl)n1`, for which, in the data set on Tetranychus cinnabarinus [4], the mortality at 10 µg/mL stood at 0%. In the data set on Tetranychus cinnabarinus [5], the mortality at 40 µg/mL turned out to be 0%.
Turning to `CO/C=C(/C(=O)OC)c1ccccc1COc1cc(C(F)(F)F)nc(OC(C)C)n1` [FLUACRYPYRIM], the mortality at 2.5 µg/mL with Tetranychus cinnabarinus [1] was found to be 65%. Also, the LC50 in the data set with Tetranychus cinnabarinus [7] was 0.64 µg/mL (≈ 1.5 µM); in the data set with Tetranychus cinnabarinus [10], 5.95 µg/mL (≈ 14 µM). In the data set with Tetranychus cinnabarinus [2], the mortality at 5 µg/mL was 94%. Besides, the mortality at 1.25 µg/mL in the data set with Tetranychus cinnabarinus [3] worked out at 30%. In addition, the mortality at 10 µg/mL with Tetranychus cinnabarinus [4] came to 95%. Further, in the data set on Tetranychus cinnabarinus [5], the mortality at 40 µg/mL worked out at 100%.
In the case of `CO/C=C(/C(=O)OC)c1ccccc1COc1cc(C(F)(F)F)nc(Nc2ccc(Cl)cc2)n1`, in the data set with Tetranychus cinnabarinus [4], the mortality at 10 µg/mL was found to be 0%. For the same compound, the mortality at 40 µg/mL with Tetranychus cinnabarinus [5] is 0%.
Turning to `CO/C=C(/C(=O)OC)c1ccccc1COc1cc(C(F)(F)F)nc(Nc2cc(Cl)ccc2Cl)n1`, in the data set on Tetranychus cinnabarinus [4], the mortality at 10 µg/mL stood at 20%. Moreover, the mortality at 40 µg/mL in the data set with Tetranychus cinnabarinus [5] worked out at 100%.
